Laboratory results published in patent EP4497440A1, “USE OF 7-TRIFLUOROMETHYL-7ALPHA,25-DIHYDROXYCHOLESTEROL IN THE TREATMENT AND MODULATION OF AUTOIMMUNE AND INFLAMMATORY DISEASES OF THE NERVOUS SYSTEM AND NEURODEGENERATIVE DISEASES” (Gdanski Uniwersytet Medyczny, priority 2023, dated 2025).
Entries after “also recorded” stand apart in the source; their conditions may differ.

How the values were obtained:
Ch25h = test: mRNA level of oxysterol-synthesizing enzyme in organotypic cerebellar slices; type: cell-based, mouse; conditions: slices first treated with LPC and then with 7α,25OHC
Description: (§1) Organotypic cerebellar slices were sampled from ten-day old mice and then grown in an incubator for 14 days. After 14 days the myelin was chemically removed with LPC (0.4 mg/ml). Following the removal of the myelin sheaths, the slices were treated with: • 1. the control group: regular culture medium, without LPC • 2. LPC, then on serum-free culture medium for 14-16 days • 3. LPC followed by barbadin 16 µM in serum-free culture medium for 14-16 days • 4. LPC followed by 7α,25OHC 0.1 µM in serum-free culture medium for 14-16 days • 5. LPC followed by NIBR189 10 µM in serum-free culture medium for 14-16 days • 6. LPC followed by barbadin 16 µM + 7α,25OHC 0.1 µM in serum-free culture medium for 14-16 days
(§2) Measurement of the mRNA level of the Ebi2 receptor and of the enzymes synthesizing (Ch25h, Cyp7b1) and degrading (Hsd3b7) the natural ligand 7α,25OHC in organotypic cerebellar slices treated with non-modified oxysterol 7α,25OHC (Fig 5) (tissue and treatments as in Fig 1 and Fig 2a) and in cerebella of the mice subject to the cuprizone model, treated with modified oxysterol CF3-7α,25OHC (Fig 6). LPC treatment modulates enzymes which synthesise and degrade the natural oxysterol 7α,25OHC.

[1] = test system: mouse organotypic cerebellar slices; test: Remyelination of organotypic cerebellar slices after LPC demyelination (Mbp mRNA by quantitative PCR); type: cell-based; conditions: LPC 0.4 mg/ml, then treatment in serum-free culture medium for 14-16 days; barbadin 16 µM, 7α,25OHC 0.1 µM, NIBR189 10 µM; concentration of CF3-7α,25OHC not given; vs untreated LPC slices
Description: as §1
Once the experiment was completed (remyelination for 14-16 days) the slices were collected and MBP mRNA levels were measured by the PCR quantitative method. In the mouse organotypic cerebellar slices in which myelin sheaths were chemically removed with lysophosphatidylcholine (LPC) spontaneous myelin regeneration took place except for the slices treated with a selective EBI2 receptor antagonist (NIBR189). The results once again reveal key significance of EBI2 intracellular signalling for myelin regeneration. […] Barbadin, which inhibits internalisation of the EBI2 receptor, is necessary to achieve the therapeutic effect (faster remyelination) in the case of non-modified oxysterol (Fig 1 and Fig 2a).

[2] = mice, subcutaneous or intraperitoneal injection, elimination from blood; cited from earlier work
Ebi2 receptor = test: Ebi2 mRNA level in organotypic cerebellar slices; type: cell-based, mouse; conditions: slices first treated with LPC and then with 7α,25OHC
Description: as §1, §2

white blood cells = test: Cuprizone model: blood morphology (white blood cell counts); type: in vivo, mice; conditions: after 14 days of treatment in the cuprizone model; CF3-7α,25OHC 20 mg/kg s.c., barbadin 0.3 mg/kg i.p.; compared to vehicle group #3
Description: C (Fig 7) or #3 (Fig 8 and 9) vehicle control group - the mice were fed with chow containing cuprizone for 9 weeks, and then with regular chow without cuprizone for another 2 weeks. Over the 2 weeks on regular chow the mice in the vehicle control group were first injected vehicle #1: DMSO (intraperitoneal injection), 150 µl once a day, and then vehicle #2: canola oil, subcutaneously, 150 µl once a day.
#4 (Fig 8 and 9) barbadin control group - the mice were fed with chow containing cuprizone for 9 weeks, and then with regular chow without cuprizone for another 2 weeks. Over the 2 weeks on regular chow the mice in the group were injected barbadin 0.3 mg/kg, intraperitoneally, 150 µl once a day, and then vehicle #2: canola oil, subcutaneously, 150 µl once a day.
E (Fig 7) or #5 experimental group with oxysterol CF3-7α,25OHC - the mice were fed with chow containing cuprizone for 9 weeks, and then with regular chow without cuprizone for another 2 weeks. Over the 2 weeks on regular chow the mice in the group were injected vehicle #1: DMSO, intraperitoneally, 150 µl once a day, and CF3-7α,25OHC, dose: 20 mg/kg, subcutaneously, 150 µl once a day.
#6 (Fig 8 and 9) experimental group with barbadin + oxysterol CF3-7α,25OHC - the mice were fed with chow containing cuprizone for 9 weeks, and then with regular chow without cuprizone for another 2 weeks. Over the 2 weeks on regular chow the mice in the group were injected barbadin, 0.3 mg/kg, intraperitoneally, 150 µl once a day, and then one hour following the barbadin injection they were injected CF3-7α,25OHC, dose: 20 mg/kg, subcutaneously, 150 µl once a day.
The blood from the heart was sampled after the mice had been euthanised, and blood morphology test was performed using a standard diagnostic analyser. […] The lymphocyte count in peripheral blood of the mice which had been injected with CF3-7α,25OHC was lower by 50% compared to the control group of mice injected with vehicles (gr. #3 or C). The specific action of CF3-7α,25OHC leading to reduction of the lymphocyte count in blood finds confirmation in the results obtained for the mice of groups #4 (or D) and #6 (or F). Compared to the control group, the lymphocyte count in blood in the group of mice injected with barbadin (#4 or D) was lower only by 21%, and in the group of mice injected with barbadin + CF3-7α,25OHC by 7%. Following interaction with CF3-7α,25OHC, barbadin blocks internalisation of the EBI2 receptor from the cell membrane. The absence of any significant effect related to the treatment with barbadin or barbadin + CF3-7α,25OHC indicates a specific action of CF3-7α,25OHC on the EBI2 receptor and the consequential effects of that action, namely reduction of the count of circulating lymphocytes in blood. Moreover, the number of monocytes in group #5 (or E: mice treated with CF3-7α,25OHC) was lower by as much as 66% and the total leukocyte count (lymphocytes and monocytes included) was also substantially lower (by 51%), though only in the group of mice injected with CF3-7α,25OHC. In our subsequent in vivo tests (short-term pharmacology) we confirmed the action of CF3-7α,25OHC. In that test, too, it reduced the count of white blood cells. CF3-7α,25OHC reduces the lymphocyte count as early as following the 4 mg/kg dose and the effect lasts for 24 hours following administration.

[3] = test system: pro-inflammatory cytokine IL1β; test: Cuprizone model: IL1β mRNA in cerebellum lysates by PCR; conditions: cerebellum lysates, cuprizone model; versus the group treated solely with vehicles
Description: Identifying the mRNA levels of pro-inflammatory cytokine IL1β in mouse cerebellum lysates (Fig 11).

SMILES | level of Ch25h (Ch25h) | remyelination (Mbp expression) [1] | half-life [2] | Ebi2 expression (Ebi2 receptor) | drop in lymphocytes (lymphocyte count in peripheral blood lower by) (white blood cells) | mRNA level of IL1β went up by [3]
C[C@H](CCCC(C)(C)O)[C@H]1CC[C@H]2[C@@H]3[C@H](O)C=C4C[C@@H](O)CC[C@]4(C)[C@H]3CC[C@]12C [7α,25OHC] | reduces the level of Ch25h | do not remyelinate quicker than ones not subject to any treatment; also recorded: do not remyelinate faster than the untreated slices | ca. 30 minutes | reduces the expression level of receptor EBI2; also recorded: does not increase its expression; also recorded: does not increase Ebi2 expression |  | 
COc1ccc(C(=O)N2CCN(C(=O)/C=C/c3ccc(Br)cc3)CC2)cc1 [NIBR189, (2E)-3-(4-bromophenyl)-1-(4-(4-methoxybenzyoil)-1-piperazine)-2-propen-1-on] |  | do not remyelinate |  |  |  | 
Nn1cnc2scc(-c3ccc(Cc4ccccc4)cc3)c2c1=O [barbadin, reference compound] |  |  |  |  | 21% | 2%
